Test results from ChEMBL document CHEMBL1151567, “Synthesis and anti HIV-1 activity of new thiadiazepindioxides” (Bioorg Med Chem Lett, 1995).

Legend:
C8166 [1] = assay: Antiviral activity was evaluated by inhibition of HIV-1 replication in CD4+ lymphoblastoid cell line infected with HIV/IIIB strain; assay type: functional, cell-based; conditions: Homo sapiens
C8166 [2] = assay: Cytotoxic activity was evaluated in CD4+ lymphoblastoid cell line; assay type: functional; conditions: Homo sapiens
C8166 [3] = assay: Ratio of CC50 to that of IC50 was determined; assay type: functional

Compound | IC50 (C8166 [1]) | CC50 (C8166 [2]) | Selectivity index (C8166 [3])
Cc1cc2c(cc1Cl)Nc1ncccc1N(C)S2(=O)=O | > 300 µM |  | 
Cc1cc2c(cc1C)N(C)S(=O)(=O)C1=CC=CN(C(C)C)C1=N2 | 0.6 µM | > 30 µM | >50
CCN1C=CC=C2C1=Nc1ccccc1S(=O)(=O)N2C | 3.7 µM | 80 µM | 22
CN1c2cccnc2Nc2ccccc2S1(=O)=O | > 300 µM |  | 
Cc1cc2c(cc1C)N(C)S(=O)(=O)c1cccnc1N2 | 4 µM | > 125 µM | >31
Cc1cc2c(cc1C)N(C)S(=O)(=O)c1cccnc1N2C(C)C | 0.032 µM | > 60 µM | >1875
CN1c2cccnc2Nc2ncccc2S1(=O)=O | 7 µM | > 125 µM | >17
Cc1ccnc2c1NC(=O)c1cccnc1N2C1CC1 [NEVIRAPINE] | 0.04 µM | 321 µM | 8025

Now from value to molecule, other results behind:

IC50 (C8166 [1]) | Compound | CC50 (C8166 [2]) | Selectivity index (C8166 [3])
> 300 µM | CCN1c2ccccc2S(=O)(=O)N(C)c2cccnc21 |  | 
0.0015 µM | CC(C)=CCN1Cc2cc(Cl)cc3[nH]c(=S)n(c23)C[C@@H]1C | 34 µM | 22600
0.28 µM | CCN1C=CC=C2C1=Nc1cc(Cl)c(C)cc1S(=O)(=O)N2C | 12 µM | 42
0.33 µM | CCN1C=CC=C2C1=Nc1cc(C)c(C)cc1N(C)S2(=O)=O | > 30 µM | >90
48 µM | CCN1c2cc(Cl)c(C)cc2S(=O)(=O)N(C)c2cccnc21 | > 60 µM | >1
0.04 µM | CCN1c2cc(C)c(C)cc2N(C)S(=O)(=O)c2cccnc21 | 150 µM | 3750
> 300 µM | CCN1c2ncccc2N(C)S(=O)(=O)c2cccnc21 | 300 µM | <1
1 µM | O=c1[nH]cnc2c1ncn2[C@H]1CC[C@@H](CO)O1 [DIDANOSINE] | 9000 µM | 9000
0.004 µM | Cc1cn([C@H]2C[C@H](N=[N+]=[N-])[C@@H](CO)O2)c(=O)[nH]c1=O [ZIDOVUDINE] | 1400 µM | 350000
